Experiments:
[1] = test system: low-density neuronal network; experiment: Patch clamp recording of monosynaptic currents in low-density neuronal network on PPy-modified MED64 after command signal; assay type: cell-based
Description: FIG. 6A is a photomicrograph image of a low-density neuronal network growing on a conducting polymer modified multielectrode array (MED64 available from Panasonic). The platinum coated electrodes are modified with the conducting polymer poly-pyrrole (PPy) containing either CNQX or chloride and phosphate ions (P) from PBS (blank release control). Release of the drug is affected by a “command signal,” which is the delivery of a voltage pulse (−2.5 V, 200 ms). Neuron “firing,” the generation of action potentials, is an all or none phenomenon. Synaptic currents are a continuous and graded phenomenon. For this reason synaptic currents recorded by patch electrodes better reflect the release and diffusion of the synaptic inhibitor CNQX, compared to action potentials recorded by the extracellular electrodes. To monitor the effect of release, individual cells in the network are patch clamped (wherein the patched cell is indicated by an arrow in FIG. 6A). The experimental protocol is described graphically in FIG. 6B. Neural stimulations (ns1,2, . . . ,8) are delivered through the substrate electrodes (but not the releasing electrode). The command signal starts 300 ms prior to ns2, and the currents are recorded by the patch electrode. […] FIG. 6C sets forth 8 columns corresponding to ns1 . . . 8, and 6 rows corresponding to individual trials. […]

[2] = test system: neuronal cultures from E18 rat cortices; experiment: Extracellular recording of spontaneous spiking on MED64 microelectrodes coated with polypyrrole/CNQX after current stimulus; assay type: cell-based
Description: CNQX is an AMPA type glutamate receptor antagonist which inhibits excitatory neural transmission. We electrodeposited polypyrrole/CNQX on the microelectrodes of MED64 probes which were than plated with neuronal cultures from E18 rat cortices. When spontaneous activity was observed on an electrode bearing a CNQX/PPy film, a current stimulus (four 1 s-long pulses of −5 μA with 200 ms refractory periods in between) was applied to the electrode. Recordings were taken before and after the stimulus to observe any inhibition and recovery (during the stimulation it was not possible to record from the particular electrode given the pulse).
It was observed that neural spiking disappeared after applying the stimulus to an electrode bearing the PPy/CNQX. And at a later time point action potentials from the same cell (determined by examination of the waveforms in Offline Sorter and Wave Tracker, Plexon Inc.) reappeared on the electrode and the rate returned to baseline (determined by pre-stimulus control recordings). […] We determined, through repeated release, inhibition and recovery cycles, a time course of inhibition and recovery (see FIG. 5B) that appears consistent with the published effect of CNQX and with the theoretical estimate of CNQX diffusion in solution. In the studies of FIG. 5B, repeated CNQX release trials were performed to determine a time course of recovery. […]

[3] = test system: cultured hippocampal network; experiment: Evoked reverberatory activity of a cultured hippocampal network, patch clamping (polysynaptic current); assay type: cell-based, rat
Description: In several studies, the NMDA-type glutamate receptor antagonist AP-5 was, for example, incorporated as a dopant into PPy-coated gold “macro-electrodes” (having an area of 0.77-cm^2). In general, macro-electrodes or macroelectrodes have dimensions greater than 1 mm. A hippocampal neuronal culture and patch clamping were used to test the effectiveness of AP5 release. The drug was released from the electrode into normal recording solution by applying 30 cyclic voltage stimuli. This solution, when added to the neuronal culture, blocked evoked reverberatory activity in the network. […] 280 trials (at 30 s intervals) of evoked activity of a cultured hippocampal network under 5 different conditions were made in several studies as follows: 1. control (ctrl); 2. with 25 μM D-AP5 (AP5); 3. wash with recording solution that soaked the macroelectrode without voltage pulses (wash1); 4. with recording solution containing electrically released AP5 (AP5_r); 5. wash with normal recording solution (wash2). […] FIGS. 3A-3E sets forth example traces of polysynaptic current with one sample trace for each test condition. The scale bar in FIGS. 3A-E is 0.5 nA, 1 s.

N#Cc1cc2nc(O)c(O)nc2cc1[N+](=O)[O-] [CNQX, 6-cyano-7-nitroquinoxaline-2,3-dione]
monosynaptic current following release (individual trial, FIG. 6C) ([1]; cell close to a CNQX containing electrode): almost completely abolished
size of monosynaptic currents following command signal ([1]; voltage pulse −2.5 V, 200 ms to electrode with PPy film containing CNQX): significant decrease
neuronal spiking on the releasing/recording electrode after release ([2]; four 1 s pulses of −5 μA, transient, with subsequent recovery to baseline): suppression of neuronal spiking
spiking activity on neighboring electrodes after release ([2]; inter-electrode distance of 212 μm): did not affect spiking activity on neighboring electrodes

N[C@H](CCCP(=O)(O)O)C(=O)O [AP5, 2-amino-5-phosphonopentanoic acid]
reverberatory activity (polysynaptic current) ([3]; added AP5, 25 μM D-AP5 in recording solution): completely blocked
reverberatory activity (polysynaptic current) ([3]; recording solution containing AP5 electrically released from PPy macroelectrode by 30 cyclic voltage stimuli (AP5_r)): completely blocked
